Where “and” joins values, the source holds several entries; their conditions need not be identical. Equal entries are not always repeated. Where two headings read alike, the source gives them in different places.

These results are taken from PMC10049495, “Antitumor Activity of PEGylated and TEGylated Phenothiazine Derivatives: Structure–Activity Relationship” (International Journal of Molecular Sciences, 2023).

One assay deals with MCF-7. To be noted: cited from earlier work.
In another assay the test system is HepG2. To be noted: cited from earlier work.
The subject of a further assay is HeLa. To be noted: cited from earlier work.
In assay [1] the test system is normal human dermal fibroblasts (NHDF). The assay can be described thus: Cytotoxicity MTS assay on normal fibroblasts. Particulars: 48 h, tested 0.01-0.3 mM, read-out: Half maximal inhibition concentration (IC50). The format is cell-based. The method, then: (§1) Cell culture: NHDF, HeLa, HOS, HepG2, MCF7, MeWo and CT-26 cells were cultivated in complete Eagle’s Minimal Essential Medium alpha (aMEM) containing a 1% Penicillin–Streptomycin–Amphotericin B mixture and a 10% fetal bovine serum under 5% CO2 humidified atmosphere at 37 °C. LN-229 cells were cultivated in DMEM with a 1% Penicillin–Streptomycin–Amphotericin B mixture and a 5% fetal bovine serum. U-118 cells were cultivated in DMEM with a 1% Penicillin–Streptomycin–Amphotericin B mixture and a 10% fetal bovine serum. StemPro™ Accutase™ Cell Dissociation Reagent was used for passaging MeWo and U-118 cells, and TrypLE Express was used for all other cell lines.
(§2) The working solutions were prepared by diluting the stock solutions with complete medium so that the final concentration of DMSO in the cell culture was 1%. The working solutions were used for incubation. Control cells were treated only with complete cell culture medium containing 1% DMSO.
(§3) Cytotoxicity MTS assay: In order to perform the MTS assay, cells were placed in culture-treated 96-well plates at densities of 5 × 10^3 cells/well (NHDF and CT-26), 7 × 10^3 cells/well (MCF7) and 10 × 10^3 cells/well (HOS, HeLa, HepG2, MeWo, LN-229, U-118) in 100 μL of a MEM medium/well and allowed to adhere for 24 h. After 24 h, the culture medium was replaced with the tested compound solutions at various concentrations, and the plates were incubated for another 48 h. Before the final reading, 20 μL CellTiter 96® Aqueous One Solution/well was added, and the plates were incubated for 1–4 h. Finally, the absorbance was recorded with a microplate reader at λ = 490 nm. The relative cell viability was expressed as a percentage of the viability of control, and the half maximal inhibitory concentration (IC50) was determined from the graphical representation of the cell viability vs. concentration. Graphical data were expressed as means ± standard error of the mean (S.E.M.). Statistical analysis was made with two-way ANOVA using Tukey’s multiple comparisons test. The difference was considered significant when p < 0.05. Data analysis was performed with GraphPad Prism software version 7.00 for Windows.
In general terms: Tetrazolium assays rely on reduction of a dye to a coloured formazan, in cell work by metabolically active cells.

Assay [2] relates to mouse colon carcinoma cell line (CT26). Description: Cytotoxicity MTS assay on CT-26. The format is cell-based. To be noted: for IC50: CT-26, 48 h, MTS, tested 0.01-0.3 mM, read-out: Half maximal inhibition concentration (IC50); for Selectivity index (SI): IC50 NHDF / IC50 CT-26. The method, then: as §1, §2, §3
Assay [3] has as its system cervical carcinoma (HeLa) cells. Description: Cytotoxicity MTS assay on HeLa. The assay is classed as cell-based, human. To be noted: for IC50: HeLa, 48 h, MTS, tested 0.01-0.3 mM, read-out: Half maximal inhibition concentration (IC50); for Selectivity index (SI): IC50 NHDF / IC50 HeLa. The method, then: as §1, §2, §3
Assay [4] deals with liver cancer (HepG2) cells. Description: Cytotoxicity MTS assay on HepG2. The format is cell-based, human. To be noted: for IC50: HepG2, 48 h, MTS, tested 0.01-0.3 mM, read-out: Half maximal inhibition concentration (IC50). The method, then:
as §1, §2, §3

The test system of another assay is osteosarcoma (HOS) cells. The assay can be described thus: Cytotoxicity MTS assay on HOS. To be noted: 48 h, tested 0.01-0.3 mM, read-out: Half maximal inhibition concentration (IC50). The assay is classed as cell-based, human. The method, then: as §1, §2, §3
Assay [5] relates to glioblastoma (LN229) cells. The assay can be described thus: Cytotoxicity MTS assay on LN229. The assay is classed as cell-based, human. Particulars: tested 0.01-0.3 mM, read-out: Half maximal inhibition concentration (IC50). The method, then: as §1, §2, §3
In assay [6] the test system is breast cancer (MCF7) cells. Description: Cytotoxicity MTS assay on MCF-7. Particulars: for Selectivity index (SI): IC50 NHDF / IC50 MCF7; for IC50: MCF-7, 48 h, MTS, tested 0.01-0.3 mM, read-out: Half maximal inhibition concentration (IC50). The assay is classed as cell-based, human. The method, then:
as §1, §2, §3

Assay [7] deals with malignant melanoma (MeWo) cells. Description: Cytotoxicity MTS assay on MeWo. To be noted: for Selectivity index (SI): IC50 NHDF / IC50 MeWo; for IC50: MeWo, 48 h, MTS, tested 0.01-0.3 mM, read-out: Half maximal inhibition concentration (IC50). The format is cell-based, human. The method, then:
as §1, §2, §3

For assay [8], the system named is glioblastoma cell line (U-118). Description: Cytotoxicity MTS assay on U-118. To be noted: for IC50: U-118, 48 h, MTS, tested 0.01-0.3 mM, read-out: Half maximal inhibition concentration (IC50). The format is cell-based, human. The method, then:
as §1, §2, §3

Assay [9] can be described thus: DPPH radical scavenging activity. Particulars: for DPPH radical inhibition: 1 mM compound, ethanol, 1 h in the dark. The text has this: In this light, the antioxidant activity of the studied phenothiazine derivatives was investigated using DPPH assay, measuring the dependence of the free radical inhibition on the concentration as highlighted by a decreasing of the absorbance of DPPH when the concentration of the compound is increasing. The results, expressed in percentage of inhibition, are represented in Figure 4.
Ex Vivo Radical Scavenging Activity: In order to evaluate antioxidant activity of the studied compounds, a bleaching method of the 1,1-diphenyl-2-picryl hydrazyl (DPPH) radical was used. Briefly, a stock solution of 2 mM of each compound in ethanol was prepared and then diluted to obtain 10 different concentrations from 1 mM to 0.0019 mM using a 96-well plate. The diluted solutions with different concentrations were mixed with an equal volume of ethanolic DPPH solution (0.05 mg/mL), and the mixtures were incubated in the dark at room temperature […] for 1 h. After incubation, the absorbance was read at 517 nm. Inhibition percentage was calculated using Equation (2), where Ac is the absorbance of the control sample (DPPH) and As is the absorbance of the mixtures. All measurements were made in triplicate. I % = (Ac-As)/Ac × 100 (2)

In the case of `CCN1c2ccc(-c3ccccc3)cc2Sc2cc(-c3nnc4ccccn34)ccc21` [3-([1,2,4]Triazolo[4,3-a]pyridin-3-yl)-10-ethyl-7-phenyl-10H-phenothiazine], in the assay on MCF-7, the IC50 is 10.2 µM.

Take `COc1ccc(-n2cc(CN3c4ccccc4Sc4ccccc43)nn2)cc1` [10-((1-(4-Methoxyphenyl)-1H-1,2,3-triazol-4-yl)methyl)-10Hphenothiazine]: the IC50 in the assay with HepG2 was 15 µM.

For `COc1cc(Cn2cc(CN3c4ccccc4Sc4ccccc43)nn2)cc(OC)c1OC` [10-{[1-(3,4,5-Trimethoxybenzyl)-1H-1,2,3-triazol-4-yl]methyl}-10H-phenothiazine], the IC50 in the assay on MCF-7 is 0.8 µM.

Consider `COc1ccn2c(C(C)=O)cc(C(=O)c3ccc4c(c3)Sc3ccccc3N4)c2c1` [1-[(10H-Phenothiazin-3-yl)carbonyl]-3-acetyl-7-methoxyindolizine], for which the IC50 with MCF-7 was greater than 10 µM.

As for `OC(CNCCc1ccccc1)CN1c2ccccc2Sc2ccccc21` (stereo not drawn) [1-Phenethylamino-3-(10H-phenothiazin-10-yl)-2-propanol], in the assay on HeLa, the IC50 was 10 µM.

As for “4-((((10-(poly(ethylene glycol))-10H-phenothiazin-3-yl)methylene)amino)methyl) benzenesulfonamide [PPMA]”, the IC50 in [1] is 150 µM; in [2], 40 µM; in [3], 116 µM; in assay [4], 54 µM; in the assay on osteosarcoma (HOS) cells it was greater than 300 µM; in assay [5] (LN229, 48 h), 239 µM. The IC50 in assay [6] came out at 90 µM; in [7], 104 µM; in assay [8], 92 µM. The “Selectivity index (SI)” value in [2] is listed as 3.75; in assay [3], 1.36; in assay [4] (IC50 NHDF / IC50 HepG2), 3; in assay [6] it was 1.66; in assay [7], 1.5; in assay [8] (IC50 NHDF / IC50 U118MG), 1.66. The DPPH radical inhibition in assay [9] is reported as 44%.

In the case of `Clc1ccc(-n2cc(CN3c4ccccc4Sc4ccccc43)nn2)cc1` [10-((1-(4-Chlorophenyl)-1H-1,2,3-triazol-4-yl)methyl)-10Hphenothiazine], the IC50 in the assay on HepG2 is 1.3 µM.

Take `CN1CCN(CCCN2c3ccccc3Sc3ccc(C(F)(F)F)cc32)CC1` [Trifluoperazine]: in the assay on MCF-7, the IC50 was 11.3 µM.

On to `CC(=O)c1cc(C(=O)c2ccc3c(c2)Sc2ccccc2N3)c2c(C)cc(C)cn12` [1-[(10H-Phenothiazin-3-yl)carbonyl]-3-acetyl-6,8-dimethylindolizine], for which the IC50 with MCF-7 was greater than 10 µM.

On to `c1ccc2c(c1)Nc1ccccc1S2` [PTZ, phenothiazine], for which the IC50 in assay [1] (Homo sapiens) was 175 µM; in assay [2] (Mus musculus, CT26), 186 µM; in [3] (Homo sapiens), 240 µM; in [4] (Homo sapiens) it was 73 µM; in the assay on osteosarcoma (HOS) cells (Homo sapiens), greater than 300 µM; in assay [5] (Homo sapiens, LN-229, LN229, 48 h) it was greater than 300 µM. In addition, the IC50 is 188 µM in assay [6] (Homo sapiens, MCF7); greater than 300 µM in assay [7] (Homo sapiens); greater than 300 µM in assay [8] (Homo sapiens). Moreover, in assay [4], the “Selectivity index (SI)” value stood at 2.42. Further, in assay [9], the DPPH radical inhibition is 67%.

With `CCN1c2ccc(-c3ccc(OC)cc3)cc2Sc2cc(-c3nnc4ccccn34)ccc21` [3-([1,2,4]Triazolo[4,3-a]pyridin-3-yl)-10-ethyl-7-(4-methoxyphenyl)-10H-phenothiazine], in the assay with MCF-7, the IC50 is 57.2 µM.

Regarding “4-((((10-(poly(ethylene glycol))-10H-phenothiazin-3-yl)methylene)amino)ethyl)benzenesulfonamide [PPEA]”, the IC50 in assay [1] is 108 µM; in assay [2], 29 µM; in assay [3] it was 86 µM; in assay [4] it was 40 µM; with osteosarcoma (HOS) cells, greater than 300 µM; in assay [5] (LN229, 48 h) it was 109 µM. Further, the IC50 in [6] amounted to 90 µM; in assay [7], 68 µM; in assay [8], 100 µM. Besides, the “Selectivity index (SI)” value in [2] worked out at 3.44; in assay [3], 1.25; in [4] (IC50 NHDF / IC50 HepG2), 2.5; in [6] it was 1.11; in [7] it was 1.66. The DPPH radical inhibition in [9] is on record as 47%.

In the case of `CC(=O)c1cc(C(=O)c2ccc3c(c2)Sc2ccccc2N3)c2cc(C)ccn12` [1-[(10H-Phenothiazin-3-yl)carbonyl]-3-acetyl-7-methylindolizine], the IC50 with MCF-7 is greater than 10 µM.

Turning to `FC(F)(F)c1ccc2c(c1)N(Cc1cn(-c3ccc(Cl)cc3)nn1)c1ccccc1S2` [10-{[1-(4-Chlorophenyl)-1H-1,2,3-triazol-4-yl]methyl}-2-{trifluoromethyl}-10H-phenothiazine], in the assay on MCF-7, the IC50 is 29.6 µM.

As for “10-(poly(ethylene glycol))-10H-phenothiazine-3-carbaldehyde [PPF]”, the IC50 in assay [1] is greater than 300 µM; in assay [2], 140 µM and 139 µM; in assay [3], greater than 300 µM; in assay [4], 100 µM and 106 µM; with osteosarcoma (HOS) cells, greater than 300 µM; in assay [5] (LN229, 48 h), greater than 300 µM. Besides, the IC50 is 270 µM in assay [6], 235 µM in assay [7] and greater than 300 µM in [8]. The “radical scavenging capacity (in words)” value in assay [9] (DPPH, 0.0019-1 mM) is “very low radical scavenging capacity”.
